Data as given in ChEMBL document CHEMBL4602695, “Discovery and SARs of 5-Chloro-N4-phenyl-N2-(pyridin-2-yl)pyrimidine-2,4-diamine Derivatives as Oral Available and Dual CDK 6 and 9 Inhibitors with Potent Antitumor Activity” (J Med Chem, 2020).

Legend:
[1] = molecular target: CDK6/cyclin D3 (Homo sapiens, UniProt Q00534); set-up: species or system Sf9
[2] = test system: Jurkat; assay: Antiproliferative activity against human Jurkat cells assessed as inhibition of cell proliferation measured after 48 hrs by CCK8 assay; format: functional, cell-based
[3] = molecular target: CDK2/Cyclin A2 (Homo sapiens, UniProt P24941); set-up: species or system Sf9
[4] = molecular target: CDK9/Cyclin K (Homo sapiens, UniProt P50750); assay: biochemical
[5] = test system: MDA-MB-231; assay: Antiproliferative activity against human MDA-MB-231 cells assessed as inhibition of cell proliferation measured after 48 hrs by CCK8 assay; format: functional, cell-based; details: MDA-MB-231, 48 h
[6] = Cytotoxicity against human L02 cells assessed as inhibition of cell proliferation measured after 48 hrs by CCK8 assay; format: cell-based
[7] = test system: MCF7; assay: Antiproliferative activity against human MCF7 cells assessed as inhibition of cell proliferation measured after 48 hrs by CCK8 assay; format: functional, cell-based; details: MCF7, 48 h

CDK9/Cyclin K, sequence (P50750 whole entry): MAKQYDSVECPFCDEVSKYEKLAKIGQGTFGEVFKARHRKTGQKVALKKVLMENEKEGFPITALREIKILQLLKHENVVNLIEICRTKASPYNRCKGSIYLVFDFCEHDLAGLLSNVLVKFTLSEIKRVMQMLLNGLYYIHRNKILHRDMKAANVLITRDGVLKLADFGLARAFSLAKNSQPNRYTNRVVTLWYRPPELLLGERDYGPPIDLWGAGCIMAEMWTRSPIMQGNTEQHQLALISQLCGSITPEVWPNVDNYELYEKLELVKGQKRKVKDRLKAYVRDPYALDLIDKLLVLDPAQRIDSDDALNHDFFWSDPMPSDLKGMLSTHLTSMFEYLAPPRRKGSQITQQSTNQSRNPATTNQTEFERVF
CDK9/Cyclin K, sequence (O75909 whole entry, further chain): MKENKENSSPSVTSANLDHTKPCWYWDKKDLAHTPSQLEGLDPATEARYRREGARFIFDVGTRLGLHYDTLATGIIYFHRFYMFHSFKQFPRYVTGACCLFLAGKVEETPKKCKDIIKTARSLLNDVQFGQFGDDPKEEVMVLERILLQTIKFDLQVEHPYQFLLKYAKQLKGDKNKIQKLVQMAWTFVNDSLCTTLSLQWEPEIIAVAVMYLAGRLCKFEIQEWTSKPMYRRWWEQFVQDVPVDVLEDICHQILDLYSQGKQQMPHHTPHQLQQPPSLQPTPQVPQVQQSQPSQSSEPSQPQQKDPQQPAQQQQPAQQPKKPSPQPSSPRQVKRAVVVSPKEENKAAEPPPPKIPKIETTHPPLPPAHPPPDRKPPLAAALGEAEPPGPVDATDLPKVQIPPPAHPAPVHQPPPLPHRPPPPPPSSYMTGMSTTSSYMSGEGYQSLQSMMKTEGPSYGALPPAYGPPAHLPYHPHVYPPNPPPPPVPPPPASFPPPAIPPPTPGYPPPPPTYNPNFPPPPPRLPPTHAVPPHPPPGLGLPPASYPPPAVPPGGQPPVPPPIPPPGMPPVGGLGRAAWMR
CDK6/cyclin D3, sequence (P30281 whole entry): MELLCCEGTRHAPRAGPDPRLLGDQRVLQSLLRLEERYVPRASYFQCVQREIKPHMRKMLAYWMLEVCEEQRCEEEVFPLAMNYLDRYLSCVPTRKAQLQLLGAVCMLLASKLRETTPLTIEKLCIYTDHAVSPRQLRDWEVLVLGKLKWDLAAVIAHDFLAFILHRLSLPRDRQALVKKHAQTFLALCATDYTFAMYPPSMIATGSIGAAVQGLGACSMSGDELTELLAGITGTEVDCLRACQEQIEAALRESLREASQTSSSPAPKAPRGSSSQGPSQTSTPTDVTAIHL
CDK6/cyclin D3, sequence (Q00534 whole entry): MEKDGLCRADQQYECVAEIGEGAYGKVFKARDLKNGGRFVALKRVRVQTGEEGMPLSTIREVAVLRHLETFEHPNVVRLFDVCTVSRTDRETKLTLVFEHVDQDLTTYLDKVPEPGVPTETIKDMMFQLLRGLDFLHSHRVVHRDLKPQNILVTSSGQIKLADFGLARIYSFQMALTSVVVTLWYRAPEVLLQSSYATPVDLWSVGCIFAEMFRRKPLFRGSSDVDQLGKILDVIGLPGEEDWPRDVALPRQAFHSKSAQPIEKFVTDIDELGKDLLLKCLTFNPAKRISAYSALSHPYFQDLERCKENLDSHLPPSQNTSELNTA

Molecule Cc1ccccc1Nc1nc(NCCc2cccnc2)ncc1Cl has an IC50 [1] greater than 10 µM, a GI50 [2] greater than 100 µM and an IC50 [3] greater than 10 µM. The IC50 [4] was greater than 10 µM, the GI50 [5] was greater than 100 µM and the GI50 at 48 h [6] was greater than 100 µM. For the same molecule, the GI50 [7] was greater than 100 µM.

Molecule CN1CCN(c2ccc(Nc3ncc(Cl)c(Nc4ccc(C(C)(C)C)cc4)n3)nc2)CC1 has an IC50 [1] of 0.735 µM, an IC50 [3] greater than 10 µM and an IC50 [4] of 6.82 µM. The GI50 [5] was 16.2 µM, the GI50 at 48 h [6] was 6.07 µM and the GI50 [7] was 12.6 µM.

Molecule COc1cc(Nc2ncc(Cl)c(Nc3ccccc3C)n2)ccn1 has an IC50 [1] greater than 10 µM, a GI50 [2] of 9.38 µM and an IC50 [3] of 0.074 µM. The IC50 [4] was 0.908 µM, the GI50 [5] was 42.6 µM and the GI50 at 48 h [6] was 18.4 µM. The GI50 [7] was greater than 100 µM.

Work on CN1CCN(c2ccc(Nc3ncc(Cl)c(NCc4ccco4)n3)nc2)CC1 yielded an IC50 [1] of 0.279 µM, a GI50 [2] greater than 100 µM and an IC50 [3] greater than 10 µM. It also gave an IC50 [4] greater than 10 µM, a GI50 [5] of 11 µM and a GI50 at 48 h [6] of 45.7 µM. It also gave a GI50 [7] of 21.3 µM.

Cc1ccccc1Nc1nc(Nc2ccc(N3CCOCC3)cn2)ncc1Cl showed an IC50 [1] of 0.046 µM, a GI50 [2] of 14.1 µM and an IC50 [3] greater than 10 µM. For the same molecule, the IC50 [4] was 0.051 µM, the GI50 [5] was 5.98 µM and the GI50 at 48 h [6] was 1.99 µM. It also gave a GI50 [7] of 6.63 µM.

For Cc1ccccc1Nc1nc(Nc2ccccc2)ncc1Cl, the IC50 [1] was greater than 10 µM, the GI50 [2] was greater than 100 µM and the IC50 [3] was greater than 10 µM. For the same molecule, the IC50 [4] was greater than 10 µM, the GI50 [5] was greater than 100 µM and the GI50 at 48 h [6] was greater than 100 µM. For the same molecule, the GI50 [7] was greater than 100 µM.

In the case of CN1CCN(c2ccc(Nc3ncc(Cl)c(NCCc4ccc(F)cc4)n3)nc2)CC1, the IC50 [1] is reported as greater than 10 µM, the GI50 [2] is reported as greater than 100 µM and the IC50 [3] is reported as greater than 10 µM. It also gave an IC50 [4] greater than 10 µM, a GI50 [5] of 28.5 µM and a GI50 at 48 h [6] greater than 100 µM. For the same molecule, the GI50 [7] was greater than 100 µM.

Cc1ccccc1Nc1nc(Nc2ccc(N3CCCCC3)cn2)ncc1Cl gave an IC50 [1] greater than 10 µM, a GI50 [2] greater than 100 µM and an IC50 [3] of 4.84 µM. The IC50 [4] was greater than 10 µM, the GI50 [5] was greater than 100 µM and the GI50 at 48 h [6] was 42.4 µM. For the same molecule, the GI50 [7] was 21.4 µM.

Molecule CC(C)c1ccccc1Nc1nc(Nc2ccc(N3CCN(C)CC3)cn2)ncc1Cl has an IC50 [1] of 0.033 µM, a GI50 [2] of 5.14 µM and an IC50 [3] greater than 10 µM. It also gave an IC50 [4] of 2.65 µM, a GI50 [5] of 4.09 µM and a GI50 [7] of 4.36 µM.

With Cc1ccccc1Nc1nc(NCc2ccncc2)ncc1Cl the IC50 [1] was greater than 10 µM, the GI50 [2] was greater than 100 µM and the IC50 [3] was greater than 10 µM. It also gave an IC50 [4] greater than 10 µM, a GI50 [5] greater than 100 µM and a GI50 at 48 h [6] greater than 100 µM. The GI50 [7] was greater than 100 µM.

Cc1ccccc1Nc1nc(NCCc2ccccc2)ncc1Cl showed an IC50 [1] greater than 10 µM, a GI50 [2] greater than 100 µM and an IC50 [3] greater than 10 µM. The IC50 [4] was greater than 10 µM, the GI50 [5] was greater than 100 µM and the GI50 at 48 h [6] was greater than 100 µM. The GI50 [7] was greater than 100 µM.

Cc1ccccc1Nc1nc(Nc2ccc(N3CCNCC3)cn2)ncc1Cl showed an IC50 [1] of 0.042 µM, a GI50 [2] of 7.87 µM and an IC50 [3] of 2.06 µM. It also gave an IC50 [4] of 0.114 µM, a GI50 [5] of 5.06 µM and a GI50 at 48 h [6] of 1.85 µM. For the same molecule, the GI50 [7] was 3.41 µM.

With CN1CCN(c2ccc(Nc3ncc(Cl)c(NCc4ccc(C(F)(F)F)cc4)n3)nc2)CC1 the IC50 [1] was 8.93 µM, the GI50 [2] was 7.96 µM and the IC50 [3] was greater than 10 µM. It also gave an IC50 [4] greater than 10 µM, a GI50 [5] of 19.1 µM and a GI50 at 48 h [6] of 26.2 µM. For the same molecule, the GI50 [7] was 28.4 µM.

Work on CCc1ccc(Nc2nc(Nc3ccc(N4CCN(C)CC4)cn3)ncc2Cl)cc1 yielded an IC50 [1] of 0.281 µM, a GI50 [2] of 11.1 µM and an IC50 [3] greater than 10 µM. It also gave an IC50 [4] of 6.87 µM, a GI50 [5] of 5.56 µM and a GI50 at 48 h [6] of 12.1 µM. For the same molecule, the GI50 [7] was 8.23 µM.

Cc1ccccc1Nc1nc(NCc2ccccc2)ncc1Cl showed an IC50 [1] greater than 10 µM, a GI50 [2] greater than 100 µM and an IC50 [3] greater than 10 µM. The IC50 [4] was greater than 10 µM, the GI50 [5] was greater than 100 µM and the GI50 at 48 h [6] was greater than 100 µM. The GI50 [7] was greater than 100 µM.

Cc1ccccc1Nc1nc(NCCc2ccccn2)ncc1Cl gave an IC50 [1] greater than 10 µM, a GI50 [2] greater than 100 µM and an IC50 [3] greater than 10 µM. The IC50 [4] was greater than 10 µM, the GI50 [5] was greater than 100 µM and the GI50 at 48 h [6] was greater than 100 µM. It also gave a GI50 [7] greater than 100 µM.

CN1CCN(c2ccc(Nc3ncc(Cl)c(NCc4ccccc4)n3)nc2)CC1 gave an IC50 [1] greater than 10 µM, a GI50 [2] greater than 100 µM and an IC50 [3] greater than 10 µM. For the same molecule, the IC50 [4] was greater than 10 µM, the GI50 [5] was 24.8 µM and the GI50 at 48 h [6] was 20.3 µM. The GI50 [7] was 17.3 µM.
